Here are results for seven compounds from PubChem BioAssay (NCI).

The structures appear in SMILES notation.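 How tested: cells in 96-well plates exposed to compound for 48 hours at five concentrations. GI50 is the concentration that inhibits growth by half. Definition used: TGI = concentration required for complete inhibition of growth.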

Common to all, as to experiment: NCI-60 cell line screen, 48 h
Assay [1] concerns SNB-75 CNS.
Assay [2] deals with SF-539 CNS.
The subject of assay [3] is OVCAR-4 ovarian.
The subject of assay [4] is OVCAR-3 ovarian.
Assay [5] relates to NCI-H460 lung.
Assay [6] deals with MCF7 breast.
For assay [7], the system named is CCRF-CEM leukemia.
For assay [8], the system named is HT29 colon.
The subject of assay [9] is HCT-15 colon.
In assay [10] the test system is SNB-19 CNS.

For `Nc1nccc2c1ccn2-c1ccc(NC(=O)c2ccc(N3CCOCC3)c(C(F)(F)F)c2)cc1`, the GI50 was 0.246 µM in [1]; 0.491 µM in assay [2]; 1.96 µM in assay [3]; 1.38 µM in assay [4]; 0.352 µM in assay [5]; 0.316 µM in assay [6]. The GI50 in assay [7] is 0.452 µM; in [8] it was 0.322 µM; in assay [9], 0.811 µM; in assay [10] it was 0.61 µM. For the same compound, the TGI stood at 1.38 µM in assay [1]; 5.96 µM in assay [2]; 24.6 µM in [3]; 15.7 µM in [4]; 1.65 µM in [5]; 1.41 µM in assay [6]. Moreover, the TGI in [7] was above 100 µM; in assay [8] it was 1.26 µM; in assay [9] it was 10.5 µM; in assay [10], 8.13 µM.

Consider `CC(=O)OC12c3ccccc3-c3ccccc3C1C1C(=O)N(C)C(=O)C12Cl` (stereo not given), for which the TGI in [1], in assay [2], in [3], in [4], in assay [5] and in assay [6] was above 10 µM each time. Further, the TGI in assay [7], in assay [8], in [9] and in [10] was above 10 µM throughout.

As for `CC(CC(=O)O)C(C(=O)O)C(=O)O` (stereo not given), the TGI in assay [1], in [2], in assay [3], in [4], in assay [5] and in [6] was above 100 µM each time. In addition, the TGI in assay [7], in assay [8], in assay [9] and in assay [10] was above 100 µM in each case.

For the compound `COc1ccccc1N1CCN(CCCn2c(=O)c3c(OC)nc(C)cc3c(=O)n2-c2ccccc2)CC1`, the GI50 in [1], in [2], in [3], in assay [4], in assay [5] and in [6] was above 100 µM in each case. In addition, the GI50 in [7], in assay [8], in [9] and in [10] was above 100 µM throughout. Besides, the TGI in assay [1], in assay [2], in assay [3], in assay [4], in assay [5] and in [6] was above 100 µM throughout. In addition, the TGI in [7], in [8], in assay [9] and in assay [10] was above 100 µM in each case.

With `COc1ccncc1C#Cc1cncc(C(=O)Nc2ccc(CN3CCN(C)CC3)c(C(F)(F)F)c2)c1`, the GI50 in assay [1] was 25.9 µM; in assay [2], 5.39 µM; in [3] it was 6.07 µM; in assay [4], 21.6 µM; in assay [5], 16.1 µM; in assay [6], 11.1 µM. In addition, the GI50 is 28.4 µM in assay [7], 9.33 µM in [8], 19.8 µM in [9] and 47 µM in assay [10]. Further, the TGI in assay [1] is above 100 µM; in assay [2], 66.6 µM; in [3], above 100 µM; in [4], 89.7 µM; in [5], 71 µM; in assay [6], 94.6 µM. Further, the TGI in [7], in [8], in assay [9] and in assay [10] was above 100 µM each time.

For the compound `O=C(CC(O)(C(F)(F)F)C(F)(F)F)c1cc(CC(=O)C(O)(C(F)(F)F)C(F)(F)F)cc(CC(=O)C(O)(C(F)(F)F)C(F)(F)F)c1`, the TGI in assay [1] was 6.73 µM; in assay [2] it was 4.9 µM; in assay [3], above 10 µM; in assay [4], 3.52 µM; in assay [5] it was 2.25 µM; in assay [6], 9.82 µM. Moreover, the TGI in [7] was above 10 µM; in assay [8] it was 4.28 µM; in [9] it was above 8.79 µM; in [10] it was above 10 µM.

With `C=CCCCCCCCCCCC1(O)C=CC2=[N+](CCCCCN=C(N)N)CCCN21` (stereo not given), the GI50 in assay [1] was 8.62 µM; in assay [2], 2.84 µM; in assay [3], 4.84 µM; in assay [4], 13 µM; in assay [5] it was 4.38 µM; in assay [6] it was 12.3 µM. In addition, the GI50 in assay [7] is 8.57 µM; in [8], 3.87 µM; in assay [9], 4.87 µM; in assay [10], 5.86 µM. For the same compound, the TGI in [1] is 25.9 µM; in [2], 7.71 µM; in assay [3], 19.9 µM; in [4] it was 36.8 µM; in assay [5], 19.9 µM; in [6] it was 40.8 µM. Moreover, the TGI turned out to be 40.3 µM in [7], 22.7 µM in [8], 18.6 µM in assay [9] and 30.4 µM in [10].
